# From US9617247B1, “Form of halosulfuron-methyl, a process for its preparation and use of the same” (priority 2015, dated 2017)
# Key:
# Format in all cases: physicochemical
# [1] = Determining water solubility (pH 7 buffer, HPLC of supernatant); conditions: for Concentration measured by HPLC after treatment: pH 7 buffer
# Method: A stock pH 7 buffer solution was prepared by adding aqueous sodium hydroxide solution (0.1 M, 145 mL) to aqueous potassium dihydrogen phosphate solution (0.1 M, 250 mL), and then adding sufficient distilled water to adjust the final volume to 500 mL. At least 1 time and up to about 5 times the amount of halosulfuron-methyl needed for saturation was added to a mixing vessel containing stock buffer solution at the test temperature (e.g., 20° C.). The mixture was magnetically stirred in the dark while being maintained at the test temperature. Samples were periodically removed for analysis. The samples were centrifuged using a high speed, temperature-controlled centrifuge at the test temperature for about 20 minutes at ≧12000 G to remove suspended particles. An aliquot of each supernatant was taken for analysis.
# The concentration of halosulfuron-methyl in the supernatant was determined by a high pressure liquid chromatography (HPLC) with a reversed phase chromatography column and UV detection. […] Samples were successively withdrawn from the mixing vessel and analyzed until three successive samples show little or no variation in concentration. The test is preferably replicated to ensure accuracy.
# [2] = Cleanout test (residual halosulfuron-methyl extracted from bottle with acetonitrile); conditions: lower rating = more effective cleanout
# Method: The test was conducted by dispersing in water a sample to produce a concentration that is normally used when applying the herbicide: 25% halosulfuron-methyl. The sample was added to tap water (300 mL) in a 400 mL beaker and magnetically stirred for 2 minutes. The mixture was then stirred for 2 minutes, whereupon the resulting dispersion was dispensed in three 100 mL aliquots to 4-oz (118 mL) polyethylene bottles. The bottles were capped, inverted twice and allowed to stand overnight.
# After standing overnight, each individual bottle was inverted twice and the liquid contents were then poured out. Tap water (10 mL) was added and the bottle was inverted until all sediment was re-suspended, whereupon the contents were poured out. Tap water (100 mL) was added and the bottle was inverted twice and then allowed to stand undisturbed for 10 minutes. The bottle was inverted twice more and the contents were poured out. Acetonitrile (10 mL) was added to the bottle to extract any remaining material. The acetonitrile solution was analyzed by reversed-phase liquid chromatography with UV detection. The cleanout rating (the concentration of halosulfuron-methyl herbicide in the acetonitrile solution) is reported in % in Table 6 below.
# [3] = Viscosity (stated finding, no method given)
# [4] = OD formulation, measured vs original concentration 40%
# [5] = OD formulation, original concentration 40%
# [6] = SG formulation, measured vs original concentration 25%
# [7] = SG formulation, original concentration 25%
# [8] = WG formulation, measured vs original concentration 25%
# [9] = WG formulation, original concentration 25%
SMILES,"Solubility [1, 4] [%]","Concentration measured by HPLC after treatment [1, 5] [%]","Solubility [1, 6] [%]","Concentration measured by HPLC after treatment [1, 7] [%]","Solubility [1, 8] [%]","Concentration measured by HPLC after treatment [1, 9] [%]",Cleanout rating (concentration of halosulfuron-methyl in the acetonitrile solution) ([2]; OD formulation) [%],Cleanout rating (concentration of halosulfuron-methyl in the acetonitrile solution) ([2]; SG formulation) [%],Cleanout rating (concentration of halosulfuron-methyl in the acetonitrile solution) ([2]; WG formulation) [%],viscosity (in words) ([3]; listed as halosulfuron-methyl in amorphous state),solubility (in words) ([1]; compared with amorphous halosulfuron-methyl),viscosity (in words) ([3]; listed as crystalline modification I of halosulfuron-methyl)
"COC(=O)c1c(Cl)nn(C)c1S(=O)(=O)NC(=O)Nc1nc(OC)cc(OC)n1 [Amorphous halosulfuron-methyl, methyl 3-chloro-5-(4,6-dimethoxypyrimidin-2-ylcarbamoylsulfamoyl)-1-methylpyrazole-4-carboxylate, reference compound]",35,14,60,15,48,12,26,10,13,highly viscous,,
"COC(=O)c1c(Cl)nn(C)c1S(=O)(=O)NC(=O)Nc1nc(OC)cc(OC)n1 [Halosulfuron-methyl, crystalline modification I] [methyl 3-chloro-5-(4,6-dimethoxypyrimidin-2-ylcarbamoylsulfamoyl)-1-methylpyrazole-4-carboxylate]",88,35,99.6,24.9,92,23,5,0.1,2,,significant increase,decrease
